The term IC50 denotes the concentration at which inhibition is half-maximal. A word on the CC50: it is the concentration at which the toxic effect on the cells reaches its halfway point.

Data set [1] relates to Toxoplasma gondii ME49 tachyzoites. The experiment in a line: Toxoplasma gondii in vitro inhibition assay (3H-uracil incorporation). The format is cell-based.
A short description of a further data set: MTT cytotoxicity assay. Format: cell-based. The note with it: human. The procedure:
(§1) The MTT [3-(4, 5-dimethylthiazole-2-yl)-2, 5-diphenyltetrazolium bromide] reduction assay ([Mosmann, 1983]) was used to quantify the cytotoxic effects of the examined chalcones and bichalcones on the host cells. To avoid edge effects, only the inner 60 wells of each plate were used. Briefly, 5 × 10^4 Hs27 cells per well were cultured in 96-well microtiter plates in Iscove’s modified Dulbecco’s medium (IMDM, Gibco–Thermo Fisher Scientific, Braunschweig, Germany, #12440053) with a volume of 100 µL per well and incubated overnight at 37°C until confluence. Different concentrations of the compounds (ranging from 200 μM to 0.09 µM) were then added to the Hs27 cells. Controls included untreated Hs27 cells treated with DMSO, and cells treated with staurosporine (0.031, 0.062, 0.125, 0.25, 0.5, 1 µM) (Merck, Darmstadt, Germany, #S4400), a natural product known for its potent activity as apoptosis inducer ([Belmokhtar et al., 2001]). After 24 h of incubation, the culture media were replaced with 100 µL of Dulbecco’s Modified Eagle Medium (DMEM) medium without red phenol (Gibco-Thermo Fisher Scientific, Braunschweig, Germany, #21041025) plus 10% heat-inactivated fetal bovine serum (FBS Standard, South America origin, fetal bovine serum, […] sterile filtered, PAN-Biotech, Aidenbach, Germany, #P30-3,306), and […] 2-mercaptoethanol (Gibco-Thermo Fisher Scientific, Braunschweig, Germany, #21985023). The experiment was performed following the manufacturer’s instructions (CyQuant MTT Cell Viability Assay Kit, Thermo Fisher Scientific, Braunschweig, Germany, #V-13154). Optical density (O.D.) was measured at 570 nm using a microplate reader (TECAN Sunrise, Männedorf, Switzerland). The half-maximal cytotoxic concentration (CC50) values of each compound against Hs27 cells relative to DMSO-treated samples were determined using GraphPad PRISM™ statistical software (version 9.5.1; San Diego, CA). In addition, the selectivity index (SI) of each compound was calculated from the ratio of CC50/IC50.

For another data set, the system named is human fibroblasts Hs27. Kind of data set: MTT cytotoxicity assay. Format: cell-based. The note with it: 24 h. The method, then: as §1
Data set [2] can be described thus: Stability experiments (reverse phase HPLC purity). Format: physicochemical. The procedure: Table S3: Purity results of the stability experiments over a varying time span at different
Entry Variations Time Purity [%]
Table S4: Reverse Phase HPLC chromatogram of bichalcone 2ab (rac) in DMSO stock solution […]
Table S5: Reverse Phase HPLC chromatogram of bichalcone 2ab (rac) in DMSO stock solution
Table S6: Reverse Phase HPLC chromatogram of bichalcone 2ab (rac) in DMSO at -78 °C for […]

Another data set concerns Toxoplasma gondii. Also on record: method as in Touquet et al., 2018. The following applies: literature value ref Touquet et al., 2018; cited from earlier work.
Setting [3] is: Toxoplasma gondii, HS27, T. gondii ME49 tachyzoites in Hs27 host cells, 3H-uracil incorporation, n = 6, read-out: IC50 ± S.D.
[4] abbreviates: T. gondii ME49 tachyzoites in Hs27 host cells, 3H-uracil incorporation, n = 6, read-out: IC50 ± S.D.
Setting [5] is: Toxoplasma gondii, HS27, read-out: IC50 ± S.D.
The mark [6] stands for this setting: Hs27 cells, MTT, 24 h, n = 6, read-out: CC50.

Like-named read-outs stand apart in the source and are kept apart here. A value given as a limit tells only on which side of the number the result lay.

As for `COc1cc(O)c(C(=O)/C=C/c2cccc(Br)c2)c(OC)c1` [1bf], in data set [1] (setting [3]), the IC50 turned out to be 11.3 ± 0.61 µM. The molecule further returned a CC50 at 24 h in the data set “MTT cytotoxicity assay” above 200 µM.

Regarding `COc1cc(C)c(-c2c(C)cc(OC)c(C(=O)/C=C/c3ccccc3)c2O)c(O)c1C(=O)/C=C/c1ccccc1` (single isomer, unassigned) [(R a)-2ab], the 50% inhibitory concentration (IC50) in data set [1] (setting [4]) is 0.1 ± 0.01 µM. Also, the CC50 with human fibroblasts Hs27 is above 200 µM.

Regarding `COc1ccc(/C=C/C(=O)c2c(OC)cc(C)c(-c3c(C)cc(OC)c(C(=O)/C=C/c4ccc(OC)cc4)c3O)c2O)cc1` [2aa], the half-maximal inhibitory concentration (IC50) in data set [1] (setting [3]) stood at 6.63 ± 0.77 µM. The molecule also gave a CC50 at 24 h in the data set “MTT cytotoxicity assay” above 200 µM.

As for `COc1cc(C)c(-c2c(C)cc(OC)c(C(=O)/C=C/c3ccccc3)c2O)c(O)c1C(=O)/C=C/c1ccccc1` (racemic) [2ab], the Purity in data set [2] (22 °C, DMSO, 24 h) is 75.9%; in data set [2] (40 °C, DMSO, 24 h), 76.6%; in data set [2] (40 °C, MeOH, 24 h), 89.7%; in data set [2] (40 °C, MeOH, KOH, 24 h), 35.6%; in data set [2] (-20 °C, DMSO, 6 months), 96.2%. Moreover, the IC50 in data set [1] (setting [3]) was determined as 0.11 ± 0.02 µM. Moreover, the half-maximal cytotoxic concentration (CC50) at 24 h in “MTT cytotoxicity assay” was above 200 µM.

Regarding `COc1cc(C)cc(O)c1C(=O)/C=C/c1ccc(Br)cc1` [1ae], in data set [1] (setting [3]), the IC50 was found to be 10.6 ± 1.05 µM. In the data set “MTT cytotoxicity assay”, this molecule showed a CC50 at 24 h of 190 ± 99 µM.

Regarding `COc1ccc(/C=C/C(=O)c2c(OC)cc(OC)c(-c3c(OC)cc(OC)c(C(=O)/C=C/c4ccc(OC)cc4)c3O)c2O)cc1` [2ba], the half-inhibitory concentration (IC50) in data set [1] (setting [3]) is above 50 µM. Further, the cytotoxic concentration (CC50) at 24 h in “MTT cytotoxicity assay” was above 200 µM.

For `COc1cc(O)c(C(=O)/C=C/c2ccccc2Br)c(OC)c1` [1bg], in data set [1] (setting [5]), the IC50 came to 4.46 ± 0.46 µM. Besides, the half-maximal cytotoxic concentration (CC50) at 24 h in “MTT cytotoxicity assay” (setting [6]) came to 86.5 ± 72 µM.

Take `COc1cc(OC)c(-c2c(OC)cc(OC)c(C(=O)/C=C/c3ccc(N(C)C)cc3)c2O)c(O)c1C(=O)/C=C/c1ccc(N(C)C)cc1` [2bc]: the IC50 in data set [1] (setting [3]) is above 50 µM. Also, the CC50 at 24 h in the data set “MTT cytotoxicity assay” was above 200 µM.

Consider `COc1ccc(/C=C/C(=O)c2c(O)cc(C)cc2OC)cc1` [1aa], for which the half-inhibitory concentration (IC50) in data set [1] (setting [3]) stood at 21.8 ± 3.07 µM. In the data set “MTT cytotoxicity assay”, this molecule yielded a CC50 at 24 h of 180 ± 32 µM.

For the molecule `COc1cc(C)c(-c2c(C)cc(OC)c(C(=O)/C=C/c3ccccc3Br)c2O)c(O)c1C(=O)/C=C/c1ccccc1Br` [2ag], the IC50 in data set [1] (setting [3]) came to 18.44 ± 0.1 µM. Further, the CC50 at 24 h in the data set “MTT cytotoxicity assay” is above 200 µM.

Regarding `COc1cc(C)cc(O)c1C(=O)/C=C/c1cccc(Br)c1` [1af], the IC50 in data set [1] (setting [3]) was found to be 6.18 ± 0.55 µM. In “MTT cytotoxicity assay”, this molecule returned a half-maximal cytotoxic concentration (CC50) at 24 h of 134 ± 78 µM.

`COc1cc(C)cc(O)c1C(=O)/C=C/c1ccccc1Br` [1ag]: the IC50 in data set [1] (setting [3]) was above 50 µM. In the data set “MTT cytotoxicity assay”, this molecule returned a CC50 at 24 h above 200 µM.

Regarding `COc1cc(OC)c(-c2c(OC)cc(OC)c(C(=O)/C=C/c3ccc(C(F)(F)F)cc3)c2O)c(O)c1C(=O)/C=C/c1ccc(C(F)(F)F)cc1` [2bd], the IC50 in data set [1] (setting [3]) was found to be 3.09 ± 0.15 µM. This molecule also registered a CC50 at 24 h in “MTT cytotoxicity assay” above 200 µM.

Consider `COc1cc(O)c(C(=O)/C=C/c2ccccc2)c(OC)c1` [1bb], for which the IC50 in data set [1] (setting [3]) came out at 6.01 ± 2.54 µM. The cytotoxic concentration (CC50) at 24 h in “MTT cytotoxicity assay” was 87.8 ± 16 µM.

On to `COc1cc(OC)c(-c2c(OC)cc(OC)c(C(=O)/C=C/c3ccc(Br)cc3)c2O)c(O)c1C(=O)/C=C/c1ccc(Br)cc1` [2be], for which, in data set [1] (setting [3]), the IC50 came to 8.55 ± 1.28 µM. Moreover, the CC50 at 24 h in “MTT cytotoxicity assay” was above 200 µM.

Regarding `COc1cc(OC)c(-c2c(OC)cc(OC)c(C(=O)/C=C/c3cccc(Br)c3)c2O)c(O)c1C(=O)/C=C/c1cccc(Br)c1` [2bf], in data set [1] (setting [3]), the IC50 was found to be 12.4 ± 2.09 µM. In the data set “MTT cytotoxicity assay”, the CC50 at 24 h was above 200 µM.

Turning to `COc1cc(OC)c(-c2c(OC)cc(OC)c(C(=O)/C=C/c3ccccc3)c2O)c(O)c1C(=O)/C=C/c1ccccc1` [2bb], the half-maximal inhibitory concentration (IC50) in data set [1] (setting [3]) was 9.75 ± 1.95 µM. In addition, in the data set “MTT cytotoxicity assay”, the cytotoxic concentration (CC50) at 24 h was above 200 µM.

`COc1cc(C)c(-c2c(C)cc(OC)c(C(=O)/C=C/c3ccc(N(C)C)cc3)c2O)c(O)c1C(=O)/C=C/c1ccc(N(C)C)cc1` [2ac]: the IC50 in data set [1] (setting [3]) was above 50 µM. The CC50 at 24 h in the data set “MTT cytotoxicity assay” is above 200 µM.

With `COc1cc(O)c(C(=O)/C=C/c2ccc(Br)cc2)c(OC)c1` [1be], in data set [1] (setting [5]), the IC50 is above 50 µM. Moreover, the CC50 at 24 h in “MTT cytotoxicity assay” (setting [6]) is above 200 µM.

For the molecule `COc1cc(OC)c(-c2c(OC)cc(OC)c(C(=O)/C=C/c3ccccc3Br)c2O)c(O)c1C(=O)/C=C/c1ccccc1Br` [2bg], the IC50 in data set [1] (setting [3]) is above 50 µM. The molecule also came in with a CC50 at 24 h in the data set “MTT cytotoxicity assay” above 200 µM.

With `COc1cc(C)c(-c2c(C)cc(OC)c(C(=O)/C=C/c3ccc(Br)cc3)c2O)c(O)c1C(=O)/C=C/c1ccc(Br)cc1` [2ae], the IC50 in data set [1] (setting [3]) was found to be 7.91 ± 1.14 µM. Moreover, the CC50 at 24 h in “MTT cytotoxicity assay” was above 200 µM.

With `COc1cc(C)c(-c2c(C)cc(OC)c(C(=O)/C=C/c3ccccc3)c2O)c(O)c1C(=O)/C=C/c1ccccc1` (single isomer, unassigned) [(S a)-2ab], the IC50 in data set [1] (setting [4]) was determined as 0.31 ± 0.03 µM. In the data set “MTT cytotoxicity assay”, this molecule returned a CC50 at 24 h above 200 µM.

On to `COc1cc(C)cc(O)c1C(=O)/C=C/c1ccccc1` [1ab], for which the IC50 in data set [1] (setting [3]) is 14.1 ± 2.62 µM. Further, in “MTT cytotoxicity assay”, half-maximal cytotoxicity (CC50 at 24 h) was put at 133 ± 28 µM.

Turning to `CCc1nc(N)nc(N)c1-c1ccc(Cl)cc1` [PYR, pyrimethamine, reference compound], the IC50 in data set [1] (setting [3]) is 0.22 ± 0.05 µM; in the data set on Toxoplasma gondii it was 400 nM. Also, the CC50 at 24 h in the data set “MTT cytotoxicity assay” is above 100 µM.

`COc1cc(O)c(C(=O)/C=C/c2ccc(C(F)(F)F)cc2)c(OC)c1` [1bd]: the IC50 in data set [1] (setting [3]) was above 50 µM. This molecule showed a CC50 at 24 h in “MTT cytotoxicity assay” above 200 µM.

Take `COc1cc(C)cc(O)c1C(=O)/C=C/c1ccc(C(F)(F)F)cc1` [1ad]: the concentration for half-maximal inhibition (IC50) in data set [1] (setting [3]) was above 50 µM. Further, the CC50 at 24 h in “MTT cytotoxicity assay” was above 200 µM.

For `COc1cc(O)c(C(=O)/C=C/c2ccc(N(C)C)cc2)c(OC)c1` [1bc], the IC50 in data set [1] (setting [5]) is above 50 µM. The CC50 at 24 h in the data set “MTT cytotoxicity assay” (setting [6]) was above 200 µM.

With `COc1cc(C)c(-c2c(C)cc(OC)c(C(=O)/C=C/c3ccc(C(F)(F)F)cc3)c2O)c(O)c1C(=O)/C=C/c1ccc(C(F)(F)F)cc1` [2ad], the IC50 in data set [1] (setting [3]) amounted to 24.7 ± 3.52 µM. The CC50 at 24 h in the data set “MTT cytotoxicity assay” is above 200 µM.

For `COc1cc(C)cc(O)c1C(=O)/C=C/c1ccc(N(C)C)cc1` [1ac], the IC50 in data set [1] (setting [3]) was above 50 µM. In addition, the CC50 at 24 h in the data set “MTT cytotoxicity assay” was above 200 µM.

Consider `COc1cc(C)c(-c2c(C)cc(OC)c(C(=O)/C=C/c3cccc(Br)c3)c2O)c(O)c1C(=O)/C=C/c1cccc(Br)c1` [2af], for which the IC50 in data set [1] (setting [3]) was 30.5 ± 7.21 µM. Moreover, the CC50 at 24 h in “MTT cytotoxicity assay” is above 200 µM.

On to `COc1ccc(/C=C/C(=O)c2c(O)cc(OC)cc2OC)cc1` [1ba], for which, in data set [1] (setting [3]), the IC50 stood at 8.08 ± 2.06 µM. For the same molecule, in the data set “MTT cytotoxicity assay”, the CC50 at 24 h was above 200 µM.

The record behind these values is PMC11298430, “Synthesis and In vitro evaluation of bichalcones as novel anti-toxoplasma agents” (Frontiers in Chemistry, 2024).
